{
  "source": "patent US5354746A",
  "about": "“Squaric acid derivatives of substituted dibenzoxazepine compounds, pharmaceutical compositions and methods of use” (G. D. Searle & Co., priority 1993, dated 1994)",
  "key": {"[1]": {"test_system": "mice", "assay": "Writhing Assay (PBQ-induced writhing, analgesic activity in mice)", "type": "in vivo, mouse (Charles River male albino mice)", "conditions": "for WRITHING ASSAY Number Out of Ten (number of mice out of ten in which a test compound produced analgesia): 30 mg per kilogram i.g., 30 min before PBQ i.p., writhes <= one-half median of saline control", "text": "The Writhing Assay is one of the most widely-used experimental procedures for measuring the analgesic activity of different narcotic and nonnarcotic analgesic agents, and involves the continuous, chemically-induced pain of visceral origin to an animal, such as a mouse or rat. [Gyires et al., Arch. int. Pharmacodyn, 267, 131-140 (1984); […] al., Fed. Proc., 15, 494 (1956); Koster et al., Fed. Proc., 18, 412 (1959); and Witken et al., J. Pharmacol. exp. Ther., 133, 400-408 (1961).] Chemicals which may be used to induce this pain include phenylbenzoquinone (PBQ) and acetic acid. As a result of the chemical irritation to the animal, a characteristic stretching and writhing of the animal (dorsiflexion of the animal's back, extension of its hindlimbs and the strong contraction of its abdominal musculature) will generally occur. […] Drugs which reduce the number of writhes of the animal appear to restore the normal nociceptive threshold of the animal. […] Charles River male albino mice, weighing 20 to 30 grams, were used in this assay. Thirty minutes after intragastric administration to ten mice of 30 mg per kilogram of body weight of a compound of the present invention (\"test compound\"), […] of body weight of a 0.025% w/v solution of PBQ was injected intraperitoneally into each mouse. Ten mice which were given saline in place of a test compound of the invention were used as a control group. Five minutes later, each mouse was individually placed into a glass beaker for observation, and the number of writhes occurring during the following ten-minute period was counted. A test compound was considered to have produced analgesia in a mouse if, in accordance with the conditions set forth above, and under the test criteria employed for this assay, after the administration of 30 mg per kilogram of body weight of a compound of the present invention to the mouse, the number of writhes elicited by a mouse injected with PBQ was equal to, or less than, one-half the median number of writhes recorded for the saline-treated control group of mice that day, as described by Taber in \"Predictive Value of Analgesic Assays in Mice and Rats,\" Advances in Biochemical Psychopharmacology, 8, 191 (1974). The results for the particular compounds of the present invention analyzed in this assay, and discussed in the examples identified below which correspond thereto, are presented in Table 1 hereinbelow as fractions under the heading \"WRITHING ASSAY.\" The fractions indicate the number of mice out of ten in which a test compound produced analgesia. The standard initial screening dose of a test compound employed in this assay was […]. If this initial screening dose of the test compound produced analgesia in seven out of ten mice, then the effect of additional doses of the test compound on the writhing response was evaluated, and then the ED50 dose was generally calculated. (The slopes of the dose-response curves for all test compounds analyzed were compared as described by Tallarida and Murray, Manual of Pharmacologic Calculations, Page 11 (Springer Verlag, New York, 1981)). All ED50 doses calculated are also presented in Table 1 hereinbelow under the heading \"WRITHING ASSAY,\" but as whole numbers."}, "[2]": {"test_system": "prostaglandin E2-induced contractions of segments of guinea pig ileum", "assay": "Prostaglandin (PGE) Antagonism Assay (inhibition of prostaglandin E2-induced contractions of guinea pig ileum segments)", "conditions": "ratio of prostaglandin E2 EC50 with/without test compound; initial concentration 3 micromolar; 30 min incubation; 37° C.; active if dose ratio >= 2", "protocol": "In order to determine the effectiveness of several of the compounds of the present invention (\"test compounds\") as prostaglandin E2 antagonists,a prostaglandin antagonism assay was conducted, as described below, to determine the ability of these compounds to inhibit prostaglandin E2 -induced contractions of segments of guinea pig ileum. […] Male albino guinea pigs weighing 200 to 500 grams were sacrificed by cervical dislocation. The ilea were then quickly removed from the guinea pigs and placed in a modified Tyrode solution, a solution which is known to those skilled in the art, containing one-half of the usual amount of magnesium ions. Segments of ileum about 2 cm long were then cut and mounted in a 10 mL tissue bath containing the modified Tyrode solution. The solution was maintained at 37° C. and aerated with a gaseous mixture of 95% oxygen and 5% carbon dioxide. Data for a control prostaglandin E2 dose response curve plotting concentration of prostaglandin E2 versus the intensity of contractions, detected isotonically, was then obtained by experimentally adjusting the dose of the prostaglandin E2 being injected into the tissue bath, in a manner known by those of skill in the art. Solutions or suspensions containing an initial concentration (3 micromolar) of a test compound in modified Tyrode solution (\"test solutions/suspensions\") were then separately substituted for the control bath solution. Each test solution/suspension was then kept in constant contact with the ileum tissue, except for brief periods to drain the bath in preparation for rinsing with fresh test solution/suspension. A second prostaglandin E2 dose response curve was then generated for prostaglandin E2 in the presence of a test compound. A control dose response curve is produced in isolated segments of guinea pig ileum mounted in an automated apparatus with six concentrations of prostaglandin E2. A solution or suspension of test compound is substituted for the control bathing solution and is incubated for thirty minutes. An additional prostaglandin E2 dose response curve is then performed in the presence of the test compound. A dose ratio is calculated from the EC50 values obtained from duplicate replications on each concentration of the test compound. […] A dose ratio of EC50 doses was calculated from the results of each test in a manner known by those of skill in the art, and described above. A test compound was determined to be \"active\" if the initial concentration used yielded at least a two-fold shift (dose ratio greater than or equal to 2) in the dose response curve for prostaglandin E2. The compounds of the present invention which were tested in this assay, and for which results are presented in Table 1, correspond to the particular examples specified in Table 1."}},
  "note": "Where a name gives a salt, the structure may show the parent alone.",
  "data": [
    {"molecule": "CCN1CCN(c2c(N3Cc4ccccc4Oc4ccc(Cl)cc43)c(=O)c2=O)CC1", "note": "[Example 2, 3-(8-Chlorodibenz[b,f][1,4]oxazepin-10(! ! H)-yl)-4-(4-ethyl-1-piperazinyl)-3-cyclobutene-1,2-dione, monohydrochloride]", "values": [
      {"measurement": "WRITHING ASSAY Number Out of Ten (number of mice out of ten in which a test compound produced analgesia)", "setting": "[1]", "result": "6/10"},
      {"measurement": "PGE ANTAGONISM IN GUINEA PIG ILEUM Dose Ratio", "setting": "[2]", "result": "5.0 ± 2.6"}
    ]},
    {"molecule": "CCOC(=O)C1CN(c2c(N3Cc4ccccc4Oc4ccc(Cl)cc43)c(=O)c2=O)CCN1c1ccccc1", "note": "(stereo not drawn) [Example 4, Ethyl 4-[2-(8-chlorodibenz[b,f][1,4]oxazepin-10(11H)-yl)-3,4-dioxo-1-cyclobuten-1-yl]-1-phenyl-2-piperazinecarboxylate]", "values": [
      {"measurement": "WRITHING ASSAY Number Out of Ten (number of mice out of ten in which a test compound produced analgesia)", "setting": "[1]", "result": "4/10"}
    ]},
    {"molecule": "CN(C)CCNc1c(N2Cc3ccccc3Oc3ccc(Cl)cc32)c(=O)c1=O.Cl", "note": "[Example 6, 3-(8-Chlorodibenz[b,f][1,4]oxazepin-10(11H)-yl)-4-[[2-(dimethylamino)ethyl]amino]-3-cyclobutene-1,2-dione, hydrochloride]", "values": [
      {"measurement": "WRITHING ASSAY Number Out of Ten (number of mice out of ten in which a test compound produced analgesia)", "setting": "[1]", "result": "6/10"},
      {"measurement": "PGE ANTAGONISM IN GUINEA PIG ILEUM Dose Ratio", "setting": "[2]", "result": "6.8 ± 4.5"}
    ]},
    {"molecule": "Cl.O=c1c(NCc2ccncc2)c(N2Cc3ccccc3Oc3ccc(Cl)cc32)c1=O", "note": "[Example 7, 3-(8-Chlorodibenz[b,f][1,4]oxazepin-10(11H)-yl)-4-[(4-pyridinylmethyl)amino]-3-cyclobutene-1,2-dione, hydrochloride]", "values": [
      {"measurement": "ED50", "setting": "[1]; Mus musculus, po, intragastric, PBQ i.p., dose producing analgesia in 50% of the animals, read-out: WRITHING ASSAY ED50 Dose I.G.", "result": 9.7, "unit": "mg/kg"},
      {"measurement": "PGE ANTAGONISM IN GUINEA PIG ILEUM Dose Ratio", "setting": "[2]", "result": "22 ± 5"}
    ]},
    {"molecule": "O=c1c(N2Cc3ccccc3Oc3ccc(Cl)cc32)c(N2Cc3ccccc3Oc3ccc(Cl)cc32)c1=O", "note": "[Example 8, 3,4-bis[8-chlorodibenz[b,f][1,4]oxazepin-10(11H) -yl]-3-cyclobutene-1,2-dione]", "values": [
      {"measurement": "WRITHING ASSAY Number Out of Ten (number of mice out of ten in which a test compound produced analgesia)", "setting": "[1]", "result": "6/10"},
      {"measurement": "PGE ANTAGONISM IN GUINEA PIG ILEUM Dose Ratio", "setting": "[2]", "result": "1.9 ± 0.9"}
    ]}
  ]
}
